Measured values from patent publication US20200270309A1, “MALEIMIDE GROUP-MODIFIED ANGIOGENESIS INHIBITOR HM-1 AND USE THEREOF” (NANJING ANJI BIOLOGICAL TECHNOLOGY CO., LTD, priority 2017, published 2020).
Peptide text beside a SMILES is read from it. * marks the point of attachment. X65 = O=C1C=CC(=O)N1c1cccc(CCCCCCCCCCCCC(=O)*)c1; X58 = O=C1C=CC(=O)N1c1cccc(CCCCCCCCCCCC(=O)*)c1; X74 = O=C1C=CC(=O)N1c1cccc(CCCCCCCCCCC(=O)*)c1; X84 = O=C1C=CC(=O)N1c1ccccc1CCCCCCCCCCCCC(=O)*; X64 = O=C1C=CC(=O)N1c1cccc(CCCCCCCCCC(=O)*)c1; X68 = O=C1C=CC(=O)N1c1ccccc1CCCCCCCCCCCC(=O)*; X59 = O=C1C=CC(=O)N1c1cccc(CCCCCCCCC(=O)*)c1; X72 = O=C1C=CC(=O)N1c1ccccc1CCCCCCCCCCC(=O)*; X60 = O=C1C=CC(=O)N1c1ccccc1CCCCCCCCCC(=O)*; X66 = O=C1C=CC(=O)N1c1cccc(CCCCCCCC(=O)*)c1; X54 = O=C1C=CC(=O)N1c1cccc(CCCCCCC(=O)*)c1; X55 = O=C1C=CC(=O)N1c1ccccc1CCCCCCCCC(=O)*; X52 = O=C1C=CC(=O)N1c1ccccc1CCCCCCCC(=O)*; X71 = O=C1C=CC(=O)N1c1cccc(CCCCCC(=O)*)c1; X46 = O=C1C=CC(=O)N1c1cccc(CCCCC(=O)*)c1; X63 = O=C1C=CC(=O)N1c1ccccc1CCCCCCC(=O)*; X49 = O=C1C=CC(=O)N1c1ccccc1CCCCCC(=O)*; X61 = O=C1C=CC(=O)N1c1cccc(CCCC(=O)*)c1; X79 = O=C1C=CC(=O)N1c1cccc(CCC(=O)*)c1; X75 = O=C1C=CC(=O)N1c1cccc(CC(=O)*)c1

Test: Half-lives and pharmacokinetic parameters of polypeptides vs HM-1
Conditions: in vivo; for half-life: T1/2β (half-life)

Row | AUC(0-inf) [ng·h/mL] | MRT inf [h] | clearance [mL/min/kg] | half-life [h] | Compound
1 | 28200 ± 7980 | 50.5 ± 13.6 | 0.59 | 35.03 ± 0.27 | C[C@H](NC(=O)CNC(=O)[C@H](CCCNC(=N)N)NC(=O)CCCCCCCCCCc1ccccc1N1C(=O)C=CC1=O)C(=O)N[C@@H](CC(=O)O)C(=O)N[C@@H](CCCNC(=N)N)C(=O)N[C@@H](C)C(=O)NCC(=O)NCC(=O)NCC(=O)NCC(=O)N[C@@H](CCCNC(=N)N)C(=O)NCC(=O)N[C@@H](CC(=O)O)C(=O)O [X22] (X72-RGADRAGGGGRGD-OH)
2 | 32000 ± 8090 | 57.1 ± 14.2 | 0.522 | 39.6 ± 0.31 | C[C@H](NC(=O)CNC(=O)[C@H](CCCNC(=N)N)NC(=O)CCCCCCCCCCCc1cccc(N2C(=O)C=CC2=O)c1)C(=O)N[C@@H](CC(=O)O)C(=O)N[C@@H](CCCNC(=N)N)C(=O)N[C@@H](C)C(=O)NCC(=O)NCC(=O)NCC(=O)NCC(=O)N[C@@H](CCCNC(=N)N)C(=O)NCC(=O)N[C@@H](CC(=O)O)C(=O)O [X35] (X58-RGADRAGGGGRGD-OH)
3 | 28200 ± 8090 | 50.4 ± 10.1 | 0.592 | 34.9 ± 0.27 | C[C@H](NC(=O)CNC(=O)[C@H](CCCNC(=N)N)NC(=O)CCCCCCCCCCCCc1cccc(N2C(=O)C=CC2=O)c1)C(=O)N[C@@H](CC(=O)O)C(=O)N[C@@H](CCCNC(=N)N)C(=O)N[C@@H](C)C(=O)NCC(=O)NCC(=O)NCC(=O)NCC(=O)N[C@@H](CCCNC(=N)N)C(=O)NCC(=O)N[C@@H](CC(=O)O)C(=O)O [X36] (X65-RGADRAGGGGRGD-OH)
4 | 27200 ± 7310 | 48.7 ± 14.1 | 0.613 | 33.75 ± 0.27 | C[C@H](NC(=O)CNC(=O)[C@H](CCCNC(=N)N)NC(=O)CCCCCCc1ccccc1N1C(=O)C=CC1=O)C(=O)N[C@@H](CC(=O)O)C(=O)N[C@@H](CCCNC(=N)N)C(=O)N[C@@H](C)C(=O)NCC(=O)NCC(=O)NCC(=O)NCC(=O)N[C@@H](CCCNC(=N)N)C(=O)NCC(=O)N[C@@H](CC(=O)O)C(=O)O [X18] (X63-RGADRAGGGGRGD-OH)
5 | 29700 ± 7580 | 53.1 ± 13.5 | 0.562 | 36.77 ± 0.29 | C[C@H](NC(=O)CNC(=O)[C@H](CCCNC(=N)N)NC(=O)CCCCCCCCCCCCc1ccccc1N1C(=O)C=CC1=O)C(=O)N[C@@H](CC(=O)O)C(=O)N[C@@H](CCCNC(=N)N)C(=O)N[C@@H](C)C(=O)NCC(=O)NCC(=O)NCC(=O)NCC(=O)N[C@@H](CCCNC(=N)N)C(=O)NCC(=O)N[C@@H](CC(=O)O)C(=O)O [X24] (X84-RGADRAGGGGRGD-OH)
6 | 32200 ± 8030 | 57.6 ± 10.6 | 0.518 | 39.91 ± 0.25 | C[C@H](NC(=O)CNC(=O)[C@H](CCCNC(=N)N)NC(=O)CCCCCc1cccc(N2C(=O)C=CC2=O)c1)C(=O)N[C@@H](CC(=O)O)C(=O)N[C@@H](CCCNC(=N)N)C(=O)N[C@@H](C)C(=O)NCC(=O)NCC(=O)NCC(=O)NCC(=O)N[C@@H](CCCNC(=N)N)C(=O)NCC(=O)N[C@@H](CC(=O)O)C(=O)O [X29] (X71-RGADRAGGGGRGD-OH)
7 | 34000 ± 8190 | 60.9 ± 9.41 | 0.49 | 42.24 ± 0.28 | C[C@H](NC(=O)CNC(=O)[C@H](CCCNC(=N)N)NC(=O)CCCCCCCCCc1ccccc1N1C(=O)C=CC1=O)C(=O)N[C@@H](CC(=O)O)C(=O)N[C@@H](CCCNC(=N)N)C(=O)N[C@@H](C)C(=O)NCC(=O)NCC(=O)NCC(=O)NCC(=O)N[C@@H](CCCNC(=N)N)C(=O)NCC(=O)N[C@@H](CC(=O)O)C(=O)O [X21] (X60-RGADRAGGGGRGD-OH)
8 | 28300 ± 6880 | 50.8 ± 10.3 | 0.588 | 35.2 ± 0.37 | C[C@H](NC(=O)CNC(=O)[C@H](CCCNC(=N)N)NC(=O)CCCCCCc1cccc(N2C(=O)C=CC2=O)c1)C(=O)N[C@@H](CC(=O)O)C(=O)N[C@@H](CCCNC(=N)N)C(=O)N[C@@H](C)C(=O)NCC(=O)NCC(=O)NCC(=O)NCC(=O)N[C@@H](CCCNC(=N)N)C(=O)NCC(=O)N[C@@H](CC(=O)O)C(=O)O [X30] (X54-RGADRAGGGGRGD-OH)
9 | 32200 ± 6970 | 57.6 ± 10.8 | 0.518 | 39.95 ± 0.28 | C[C@H](NC(=O)CNC(=O)[C@H](CCCNC(=N)N)NC(=O)CCCCCCCc1ccccc1N1C(=O)C=CC1=O)C(=O)N[C@@H](CC(=O)O)C(=O)N[C@@H](CCCNC(=N)N)C(=O)N[C@@H](C)C(=O)NCC(=O)NCC(=O)NCC(=O)NCC(=O)N[C@@H](CCCNC(=N)N)C(=O)NCC(=O)N[C@@H](CC(=O)O)C(=O)O [X19] (X52-RGADRAGGGGRGD-OH)
10 | 24600 ± 7530 | 44.1 ± 10.7 | 0.677 | 30.6 ± 0.32 | C[C@H](NC(=O)CNC(=O)[C@H](CCCNC(=N)N)NC(=O)Cc1cccc(N2C(=O)C=CC2=O)c1)C(=O)N[C@@H](CC(=O)O)C(=O)N[C@@H](CCCNC(=N)N)C(=O)N[C@@H](C)C(=O)NCC(=O)NCC(=O)NCC(=O)NCC(=O)N[C@@H](CCCNC(=N)N)C(=O)NCC(=O)N[C@@H](CC(=O)O)C(=O)O [X25] (X75-RGADRAGGGGRGD-OH)
11 | 25600 ± 8510 | 45.8 ± 10.6 | 0.652 | 31.72 ± 0.25 | C[C@H](NC(=O)CNC(=O)[C@H](CCCNC(=N)N)NC(=O)CCCCCCCCCCCc1ccccc1N1C(=O)C=CC1=O)C(=O)N[C@@H](CC(=O)O)C(=O)N[C@@H](CCCNC(=N)N)C(=O)N[C@@H](C)C(=O)NCC(=O)NCC(=O)NCC(=O)NCC(=O)N[C@@H](CCCNC(=N)N)C(=O)NCC(=O)N[C@@H](CC(=O)O)C(=O)O [X23] (X68-RGADRAGGGGRGD-OH)

Further lines, the compound ahead of its results:

Row | Compound | AUC(0-inf) [ng·h/mL] | MRT inf [h] | clearance [mL/min/kg] | half-life [h]
12 | C[C@H](NC(=O)CNC(=O)[C@H](CCCNC(=N)N)NC(=O)CCCCCCCCc1ccccc1N1C(=O)C=CC1=O)C(=O)N[C@@H](CC(=O)O)C(=O)N[C@@H](CCCNC(=N)N)C(=O)N[C@@H](C)C(=O)NCC(=O)NCC(=O)NCC(=O)NCC(=O)N[C@@H](CCCNC(=N)N)C(=O)NCC(=O)N[C@@H](CC(=O)O)C(=O)O [X20] (X55-RGADRAGGGGRGD-OH) | 31800 ± 8320 | 57.1 ± 12.9 | 0.523 | 39.56 ± 0.28
13 | C[C@H](NC(=O)CNC(=O)[C@H](CCCNC(=N)N)NC(=O)CCc1cccc(N2C(=O)C=CC2=O)c1)C(=O)N[C@@H](CC(=O)O)C(=O)N[C@@H](CCCNC(=N)N)C(=O)N[C@@H](C)C(=O)NCC(=O)NCC(=O)NCC(=O)NCC(=O)N[C@@H](CCCNC(=N)N)C(=O)NCC(=O)N[C@@H](CC(=O)O)C(=O)O [X26] (X79-RGADRAGGGGRGD-OH) | 34600 ± 8340 | 62 ± 9.63 | 0.482 | 42.95 ± 0.36
14 | C[C@H](NC(=O)CNC(=O)[C@H](CCCNC(=N)N)NC(=O)CCCCc1cccc(N2C(=O)C=CC2=O)c1)C(=O)N[C@@H](CC(=O)O)C(=O)N[C@@H](CCCNC(=N)N)C(=O)N[C@@H](C)C(=O)NCC(=O)NCC(=O)NCC(=O)NCC(=O)N[C@@H](CCCNC(=N)N)C(=O)NCC(=O)N[C@@H](CC(=O)O)C(=O)O [X28] (X46-RGADRAGGGGRGD-OH) | 25100 ± 7920 | 45 ± 13 | 0.663 | 31.19 ± 0.26
15 | C[C@H](NC(=O)CNC(=O)[C@H](CCCNC(=N)N)NC(=O)CCCCCc1ccccc1N1C(=O)C=CC1=O)C(=O)N[C@@H](CC(=O)O)C(=O)N[C@@H](CCCNC(=N)N)C(=O)N[C@@H](C)C(=O)NCC(=O)NCC(=O)NCC(=O)NCC(=O)N[C@@H](CCCNC(=N)N)C(=O)NCC(=O)N[C@@H](CC(=O)O)C(=O)O [X17] (X49-RGADRAGGGGRGD-OH) | 30000 ± 7060 | 53.8 ± 12.3 | 0.555 | 37.26 ± 0.29
16 | C[C@H](NC(=O)CNC(=O)[C@H](CCCNC(=N)N)NC(=O)CCCCCCCc1cccc(N2C(=O)C=CC2=O)c1)C(=O)N[C@@H](CC(=O)O)C(=O)N[C@@H](CCCNC(=N)N)C(=O)N[C@@H](C)C(=O)NCC(=O)NCC(=O)NCC(=O)NCC(=O)N[C@@H](CCCNC(=N)N)C(=O)NCC(=O)N[C@@H](CC(=O)O)C(=O)O [X31] (X66-RGADRAGGGGRGD-OH) | 28600 ± 6960 | 51.3 ± 11.3 | 0.582 | 35.58 ± 0.31
17 | C[C@H](NC(=O)CNC(=O)[C@H](CCCNC(=N)N)NC(=O)CCCCCCCCCc1cccc(N2C(=O)C=CC2=O)c1)C(=O)N[C@@H](CC(=O)O)C(=O)N[C@@H](CCCNC(=N)N)C(=O)N[C@@H](C)C(=O)NCC(=O)NCC(=O)NCC(=O)NCC(=O)N[C@@H](CCCNC(=N)N)C(=O)NCC(=O)N[C@@H](CC(=O)O)C(=O)O [X33] (X64-RGADRAGGGGRGD-OH) | 34000 ± 7620 | 60.8 ± 12 | 0.49 | 42.15 ± 0.26
18 | C[C@H](NC(=O)CNC(=O)[C@H](CCCNC(=N)N)NC(=O)CCCCCCCCc1cccc(N2C(=O)C=CC2=O)c1)C(=O)N[C@@H](CC(=O)O)C(=O)N[C@@H](CCCNC(=N)N)C(=O)N[C@@H](C)C(=O)NCC(=O)NCC(=O)NCC(=O)NCC(=O)N[C@@H](CCCNC(=N)N)C(=O)NCC(=O)N[C@@H](CC(=O)O)C(=O)O [X32] (X59-RGADRAGGGGRGD-OH) | 30900 ± 7750 | 55.3 ± 11.8 | 0.54 | 38.33 ± 0.31
19 | C[C@H](NC(=O)CNC(=O)[C@H](CCCNC(=N)N)NC(=O)CCCCCCCCCCc1cccc(N2C(=O)C=CC2=O)c1)C(=O)N[C@@H](CC(=O)O)C(=O)N[C@@H](CCCNC(=N)N)C(=O)N[C@@H](C)C(=O)NCC(=O)NCC(=O)NCC(=O)NCC(=O)N[C@@H](CCCNC(=N)N)C(=O)NCC(=O)N[C@@H](CC(=O)O)C(=O)O [X34] (X74-RGADRAGGGGRGD-OH) | 27700 ± 8150 | 49.6 ± 10.2 | 0.602 | 34.35 ± 0.26
20 | C[C@H](NC(=O)CNC(=O)[C@H](CCCNC(=N)N)NC(=O)CCCc1cccc(N2C(=O)C=CC2=O)c1)C(=O)N[C@@H](CC(=O)O)C(=O)N[C@@H](CCCNC(=N)N)C(=O)N[C@@H](C)C(=O)NCC(=O)NCC(=O)NCC(=O)NCC(=O)N[C@@H](CCCNC(=N)N)C(=O)NCC(=O)N[C@@H](CC(=O)O)C(=O)O [X27] (X61-RGADRAGGGGRGD-OH) | 26200 ± 7250 | 46.9 ± 9.74 | 0.635 | 32.52 ± 0.25
